From BigSolDB 2.1

O=S(=O)([O-])Oc1ccc(C(c2ccc(OS(=O)(=O)[O-])cc2)c2ccccn2)cc1.[Na+].[Na+]
solubility (mole fraction)
Settings | in DMF | in DMSO | in acetic acid | in acetonitrile | in ethanol | in methanol | in n-butanol | in n-propanol | in water
298.15 K | 0.0269 | 0.0049 | 0.0014 | 0.0001 | 0.0011 | 0.0096 | 0.0001 | 0.0002 | 0.0215
303.15 K | 0.0321 | 0.0058 | 0.0019 | 0.0001 | 0.0015 | 0.0116 | 0.0002 | 0.0004 | 0.0252
308.15 K | 0.0387 | 0.0069 | 0.0025 | 0.0003 | 0.0021 | 0.0142 | 0.0005 | 0.0007 | 0.0299
313.15 K | 0.0463 | 0.0083 | 0.0034 | 0.0005 | 0.003 | 0.0178 | 0.0011 | 0.0014 | 0.0347
318.15 K | 0.0561 | 0.0099 | 0.0046 | 0.001 | 0.0041 | 0.0213 | 0.0022 | 0.0028 | 0.0398
